According to publication PMC6480424, “Hydrophobic Amines and Their Guanidine Analogues Modulate Activation and Desensitization of ASIC3” (International Journal of Molecular Sciences, 2019):

Tests used:
Format in all cases: cell-based
[1] = biological target: T1, ASIC3 (acid-sensing ion channel 3) (Rattus norvegicus, UniProt O35240); experiment: whole-cell patch clamp, sustained current potentiation by […] at pH […]; conditions: read-out: % potentiation at 0.5 mM
T1 construct: homomeric rat ASIC3 expressed in CHO cells
T1 sequence (O35240 1-533): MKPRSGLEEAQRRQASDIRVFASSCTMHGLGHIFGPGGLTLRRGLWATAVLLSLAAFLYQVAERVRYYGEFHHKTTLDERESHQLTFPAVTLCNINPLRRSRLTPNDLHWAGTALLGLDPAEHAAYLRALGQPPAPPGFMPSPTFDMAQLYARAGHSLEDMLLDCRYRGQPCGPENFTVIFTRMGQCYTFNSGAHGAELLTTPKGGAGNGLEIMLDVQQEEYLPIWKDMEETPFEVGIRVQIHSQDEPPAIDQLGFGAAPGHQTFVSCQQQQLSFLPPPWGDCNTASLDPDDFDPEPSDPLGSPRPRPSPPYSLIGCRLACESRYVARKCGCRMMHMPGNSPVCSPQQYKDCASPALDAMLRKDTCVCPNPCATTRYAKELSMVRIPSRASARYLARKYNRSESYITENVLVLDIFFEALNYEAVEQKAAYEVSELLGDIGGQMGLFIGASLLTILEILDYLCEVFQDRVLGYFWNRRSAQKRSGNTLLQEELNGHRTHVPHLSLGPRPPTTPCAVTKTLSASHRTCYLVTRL

[2] = biological target: T1, ASIC3 (acid-sensing ion channel 3); experiment: whole-cell patch clamp, sustained current inhibition at pH […]
[3] = biological target: T1, ASIC3 (acid-sensing ion channel 3); experiment: whole-cell patch clamp, peak inhibition and sustained potentiation, on/tail currents
[4] = biological target: T1, ASIC3 (acid-sensing ion channel 3); experiment: whole-cell patch clamp, peak current inhibition at pH […]
[5] = biological target: T1, ASIC3 (acid-sensing ion channel 3); experiment: whole-cell patch clamp, sustained current inhibition by […] at pH […]; conditions: read-out: % inhibition at 0.5 mM
[6] = biological target: T1, ASIC3 (acid-sensing ion channel 3); experiment: whole-cell patch clamp at […], acidic shift of activation

## NC1c2ccccc2-c2ccccc21 [IEM-2117]
[1]
  activation at 500 µM: 498 ± 196%

## CC12CC3CC(C)(C1)CC(NC(=N)N)(C3)C2 [IEM-2163]
[2]
  IC50: 117 ± 5.6 µM

## Nc1c2ccccc2nc2ccccc12 [9AA, 9-aminoacridine]
[3]
  whole-cell patch clamp, peak inhibition and sustained potentiation, on/tail curr: 9-Aminoacridine and IEM-2044, which inhibit peak and potentiate the sustained component of the response

## N=C(N)NCCC1(c2ccccc2)CCCCC1 [IEM-2195]
[4]
  IC50: 21 ± 15 µM

## NCCC1(c2ccccc2)CCCCC1 [IEM-2044]
[3]
  whole-cell patch clamp, peak inhibition and sustained potentiation, on/tail curr: 9-Aminoacridine and IEM-2044, which inhibit peak and potentiate the sustained component of the response

## N=C(N)NC12CC3CC(CC(C3)C1)C2 [IEM-2151]
[5]
  inhibition at 500 µM: 29 ± 4%

## CN(C)CCC=C1c2ccccc2CCc2ccccc21 [amitriptyline]
[6]
  whole-cell patch clamp at 500 μM, acidic shift of activation: IEM-2044 and amitriptyline have opposite effects on different channels, inducing an alkaline shift of activation on ASIC1a
